Source: patent US11478442B2, “Pharmaceutical compositions comprising DGLA and use of same” (DS Biopharma Limited, priority 2014, dated 2022)
Read-outs that look alike come from different tables or passages of the source. Values belong to the compound of their own block, whether it stands above or below them.

Tests used:
[1] = test system: spontaneous hypertensive rats; experiment: Anti-hypertension efficacy of DGLA and aspirin in spontaneous hypertensive rats with phenylephrine challenge; assay type: in vivo, rat; conditions: for effect on mean systemic arterial pressure (in words): aspirin-fed rats
Experimental: An in vivo investigation of anti-hypertension efficacy following co-administration of DGLA and aspirin in spontaneous hypertensive rats was conducted. This experiment investigated the efficacy of DGLA when co-administered chronically with aspirin to reduce the hypertensive response induced acutely by phenylephrine in spontaneous hypertensive rats. Spontaneously hypertensive adult male rats (250-300 g), bred by Charles River Laboratories, were used for this assay. The animals were identified upon arrival as per CCPA guidelines. The animals were pair-housed by group (low dose+ Aspirin, high dose+ Aspirin or Aspirin alone) for the duration of the oral gavage prior to surgery. All animal care and vivarium maintenance was recorded, with documents kept at the test facility.
The concentrations of DGLA to be tested (50 and 500 mg/kg) as well as the concentration of aspirin (10 mg/kg) were selected by the Sponsor based on information available at the time of design of this study. They were selected to cover a range of concentrations useful for the identification of the mechanism of action of the test article.
All solution preparations were documented on a Solution Contents Form, defining labelling information and all relevant information on reagents: batch number, storage conditions, contents, and preparation/expiry dates.
The test article was formulated using olive oil as the vehicle. This stock solution was then administered by oral gavage once per day for seven consecutive days. A low and a high dose (50 mg/kg and 500 mg/kg) were tested.
A 5 mg/ml stock solution of Aspirin was prepared by dissolving the appropriate amount of aspirin in 100% DMSO which was then diluted in water. The concentration of DMSO was less than 1%. The appropriate volume was administered by oral gavage to each animal once per day for seven consecutive days. The stock solution was stored at room temperature and was considered stable for the duration of the gavage.
The appropriate volume was administered to each animal by an intravenous injection at the end of the experiment on the surgery day. The stock solution was stored at 4° C. and was considered stable for the duration of the experiment.
Male spontaneous hypertensive rats weighing approximately 300 g arrived at the facility at least two days before beginning the oral gavage. Animals were assigned to one of three groups (low dose+ aspirin, high dose+ aspirin, and aspirin), and were pair-housed during the acclimation period. Each group (n=4) received the appropriate compound by oral gavage using a 16G feeding needle. The stock solution was administered once per day for seven consecutive days. On the seventh day of administration, the animals underwent surgery and hypertensive monitoring.
Rats were anesthetized with a 2.5-3.0% isoflurane-O2 mixture in an induction box. When the animals were removed from the induction box, they were connected onto a nose cone to maintain anesthesia during the tracheotomy. The animals were tracheotomised with an endotracheal tube (7 cm length from connector to the tip made with a PE205 tube from BD and a 16G needle) to facilitate spontaneous breathing, stabilize hemodynamics, and to keep the rat under anesthesia with an isoflurane-O2 mixture. Two catheters were inserted: one in the right femoral artery for systemic arterial pressure (SAP) measurement, and one in the right femoral vein for delivery of the hypertensor and positive control. ECG signals were acquired with ECG contacts placed in a Lead-1 configuration on the anaesthetized animal, and a pulse oxymeter was attached to the animal's hind paw to enable continuous monitoring of the general condition of the rat during the surgical. Following baseline measurements, three doses of phenylephrine (3, 10 and 20 μg/kg) were delivered by an IV bolus injection, leaving 5 minutes between doses. […] After the positive control, 10 μg/kg of phenylephrine was administered again.

[2] = in vivo
[3] = Phase one study, multiple dose (28 days): plasma pharmacokinetics of total DGLA incl. steady state; assay type: in vivo, human; conditions: for half-life: 2000 mg, 2000 mg dose cohort, read-out: Median total DGLA elimination t½ (converted); for Peak Trough Fluctuation (PTF), mean (Table 24, total DGLA): steady-state, Day 28 (0-24 hours)
Experimental: (§1) A single-center, double-blind, randomized, placebo-controlled, two part Phase one study was performed in healthy male and female subjects aged 18 to 45 years inclusive. The primary objective of this study was to assess the safety and plasma pharmacokinetics (PK) of orally administered single doses and orally administered multiple doses of DS107G capsules (once daily for 28 days) in healthy subjects.
(§2) Multiple dose part two of the study comprised two cohorts (Cohorts five and six) of eight subjects each, who were administered multiple doses of study drug in the fasted state for 28 days. Subjects in Cohorts five and six received DS107G 2000 or 4000 mg, respectively, or matching placebo once daily for 28 days. Cohort six was started after Cohort five safety data were evaluated by the SMC. No interim analysis was planned.
(§3) Safety assessments were monitored throughout the study.
(§4) In Part two of the study (Cohorts five and six), subjects were administered study drug (500-mg DS107G capsules or matching placebo capsules) once daily in the fasted state for 28 days. Subjects in Cohort five received study drug first and, if they tolerated the 2000-mg daily dose for the first 14 days, subjects in Cohort six were started on the 4000-mg daily dose for 28 days.
(§5) PK parameter was computed after correcting the dosed DGLA concentrations with baseline DGLA concentrations.

[4] = Phase one study, food effect: single 1000 mg dose fasted vs fed, plasma pharmacokinetics of free and total DGLA; assay type: in vivo, human; conditions: for Tmax: human, plasma, oral, 1000 mg, read-out: total DGLA tmax, median
Experimental: The effect of food on the PK of an orally administered single dose of DS107G capsule in healthy subjects.
Subjects were randomly assigned in a 3:1 ratio of DG107G to placebo by block randomization. Single dose part one of the study comprised three cohorts of eight subjects each, with the addition of Cohort four based on evaluation of the safety data of Cohort three by the Safety Monitoring Committee (SMC). A single oral dose of DS107G or matching placebo was administered to fasted subjects in Cohorts one to three (500, 1000, and 2000 mg, respectively) in parallel; subjects in Cohort four were administered a dose of 4000 mg following completion of Cohort three. Subjects in Cohort two received 1000 mg or matching placebo in the fed state at 14 days after the first dose.
Food effect was evaluated in Cohort two at least 14 days after the first dose at which time a second single dose was administered. Subjects were administered a 1000-mg dose of study drug with 240 mL of water after a 10-hour fasting period and 30 minutes after starting consumption of a meal. Subjects then refrained from food intake for at least 4 hours after dosing. Food consumption was standardized for at least 12 hours after dosing using a standardized high-fat meal (800 to 1000 kcal with 500 to 600 kcal from fat and 250 kcal from carbohydrates). A typical standard test meal consisted of two eggs fried in butter, two strips of bacon, two slices of toast with butter, 120 mL of hash brown potatoes, and 240 mL of whole milk.
Subjects in Cohort two undergoing evaluation of the food effect on oral 1000 mg DGLA capsules were restricted from food consumption for at least 4 hours after dosing. Food consumption was standardized for at least 12 hours post dose using a standardized high-fat meal.

[5] = Phase one study, multiple dose (28 days): plasma pharmacokinetics of free DGLA incl. steady state; assay type: in vivo, human
Experimental: as §1, §2, §3, §4, §5

[6] = Phase one study, multiple dose: free and total DGLA in skin blister fluid; assay type: in vivo, human
Excerpt: The PK of DGLA in human skin following multiple doses of DS107G capsule given once daily for 28 days to healthy subjects.

[7] = DGLA 50 mg/kg gavage 7 days, before intravenous phenylephrine
[8] = concentrations from Days 1, 8, 14 and 28

Structure (SMILES): COc1ccccc1OCCNCC(O)COc1cccc2[nH]c3ccccc3c12 (stereo not shown) [Carvedilol, reference compound]
effect on mean systemic arterial pressure (in words) ([1]; carvedilol 0.1 mg/kg iv after phenylephrine): significant decrease | effect on blood pressure (in words) ([1]; carvedilol 0.1 mg/kg iv, DGLA + aspirin-fed animals): significant decrease in blood pressure

Structure (SMILES): CNC[C@H](O)c1cccc(O)c1 [phenylephrine, reference compound]
effect on mean systemic arterial pressure (in words) ([1]; phenylephrine 3, 10, 20 μg/kg iv): increased mean systemic arterial pressure with increasing doses

plasma free 15-HETrE concentration [2]: < 100 ng/m L
Structure (SMILES): CCCCC[C@H](O)/C=C/C=C\C/C=C\CCCCCCC(=O)O [Batch 15-HETrE, 15-Hydroxyeicosatrienoic acid]

half-life ([3]; both sexes, human, plasma, oral, Day 1, assessed over 24 hours): 34.4 h | half-life ([3]; both sexes, human, plasma, oral, Day 28, assessed over 24 hours): 44 h | half-life ([3]; both sexes, human, plasma, oral, Day 28, evaluated over 0 to 168 hours): 62.6 h | Tmax ([3]; both sexes, human, plasma, oral, with multiple doses, both dose cohorts, read-out: total DGLA Median T (tmax)): 8 to 10 h | Peak Trough Fluctuation (PTF), mean (Table 24, total DGLA) ([3]; first of both dose cohorts (2000 mg)): 62.5% | Peak Trough Fluctuation (PTF), mean (Table 24, total DGLA) ([3]; second of both dose cohorts (4000 mg)): 44.9% | free DGLA Cmax occurred sooner (median) under fasted than fed conditions [4]: 1 h | Tmax ([4]; fasted): 8 h | Tmax ([4]; fed): 15 h | free DGLA mean accumulation ratio (AR) for AUC ([5]; 2000 mg daily): ~3.3 | free DGLA mean accumulation ratio (AR) for Cmax ([5]; 2000 mg daily): ~2.8 | free DGLA mean accumulation ratio (AR) for AUC ([5]; 4000 mg daily): ~1.6 | free DGLA mean accumulation ratio (AR) for Cmax ([5]; 4000 mg daily): ~1.4 | day by which plasma concentrations reached steady-state ([5]; 2000 and 4000 mg daily, free and total DGLA): ~14 days | time after dosing at which mean concentrations of free DGLA peaked ([5]; Days 1 and 28, 2000 and 4000 mg daily): about 4 hours | Mean total DGLA concentrations in skin blister fluid, Day 28 vs Day 1 ([6]; 2000 mg daily): about 2.5 fold | Mean total DGLA concentrations in skin blister fluid, Day 28 vs Day 1 ([6]; 4000 mg daily): ~3 fold | change of mean free DGLA concentrations in skin blister fluid with a doubling in dose (in words) [6, 8]: approximately doubled | increase of mean total DGLA concentrations in skin blister fluid with a doubling in dose [6, 8]: about 1.4 fold
Structure (SMILES): CCCCC/C=C\C/C=C\C/C=C\CCCCCCC(=O)O [DGLA, Dihomo gamma linolenic acid]
Diastol arterial pressure [1, 7]: 75 mm Hg | Systol arterial pressure [1, 7]: 120 mm Hg | Diastol arterial pressure ([1]; DGLA 500 mg/kg gavage 7 days, before intravenous phenylephrine): 80 mm Hg | effect on arterial pressure in spontaneously hypertensive rats (in words) ([1]; DGLA alone, 50 or 500 mg/kg gavage 7 days): successfully decreases the arterial pressure

Structure (SMILES): CC(=O)Oc1ccccc1C(=O)O [Aspirin, reference compound]
Mean Arterial Pressure, Average ([1]; Aspirin 10 mg/kg/day gavage 7 days, Baseline): 136.8 mm Hg
